Structures can show the parent of a compound that is named as a salt. Where two headings read alike, the source gives them in different places.
Key:
[1] = Lethal dose in the mouse after acute administration; conditions: in vivo; for mortality at 72 h: po, read-out: % of toxicity (animals which die)
Description: The products were administered by the oral route to batches of 5 female Charles River CDl mice, weighing between 20 and 24 g. They were solubilized in 0.1N HCl.
Toxicity was noted during the 72 hours following administration of the products. The LD50 was calculated for two products.
The results expressed in percentage of animals which die in the […] consecutive to the oral administration of the products are noted in the preceding Table.

[2] = tested on: spontaneous motility of female Charles River CDl mice; experiment: Effect of the products on the spontaneous motility (actimeter test); assay type: in vivo; conditions: Mus musculus, po, 0.75 h, 45 min after administration, recorded 10 min, vs controls, * p 0,05, ** p 0,01 (Student test), read-out: Locomotor activity Score (p.cent/controls); for change in vivo at 250 mg/kg: 250 mg/kg p.o.; for change in vivo at 100 mg/kg: 100 mg/kg p.o.
Description: The sedative effect is translated by the reduction of the spontaneous motility of the animals. This was measured by the actimeter test developed by BOISSIER and SIMON (1965). The equipment was composed of actimetric cages, of the Apelab type (26×21.5×10 cm), through which pass two light rays which act on a photoelectric cell. The batches were constituted by 12 female Charles River CDl mice weighing between 20 and 24 g. The animals were placed individually in the cages 45 minutes after the oral administration of the products at the dose of 250 mg/kg or at the dose of 100 mg/kg. Each passage through a light beam was counted by an individual meter. The scores corresponding to the movements of the animals were recorded for 10 minutes and compared with the scores made by the batches of control animals, treated solely by the vehicle (0.1N HCl).

[3] = tested on: convulsions induced by an electric shock in Charles River CDl mice; experiment: Antagonism of the convulsions induced by an electric shock; assay type: in vivo; conditions: 1 h; mouse; oral, 60 min before electric shock (12.5 volts, 0.3 seconds); read-out: Median effective dose (ED50) Antagonism of the electric shock
Description: (§1) The anti-epileptic effect of the products in the mouse was assessed on a model of convulsions provoked by an electric shock, and on a model of convulsions induced by a chemical agent: bicuculline.
The test was slightly modified from that of SWINYARD et al (1952) and ASAMI et al (1974). The equipment was composed of a Racia shock generator provided with two ocular electrodes delivering a current of 12.5 volts for 0.3 seconds. The batches were constituted by 10 Charles River CDl mice, weighing between 20 and 24 g. The products were administered by the oral route, 60 minutes before the electric shock. The animals presenting no tonic extension of the rear limbs were considered as being protected from the convulsive crisis.

[4] = tested on: loss of the turn-around reflex in Charles River CDl mice; experiment: Potentialization of narcosis by pentobarbital; assay type: in vivo; conditions: po; mouse; product 60 min before pentobarbital 20 mg/kg i.p.
Description: With a view to assessing the hypnogenic power of the products, we have studied their capacity to potentialize the effects of a subnarcotic dose of pentobarbital in the mouse. The batches were constituted by 10 Charles River CDl mice, weighing between 20 and 24 g. The pentobarbital (20 mg/kg, i.p.) was administered 60 minutes after administration of the products. The criterion of sleep-induction retained was the loss of the turn-around reflex.

[5] = tested on: convulsions provoked by bicuculline in Charles River CDl mice; experiment: Antagonism of the convulsions provoked by bicuculline; assay type: in vivo; conditions: mouse; oral, 60 min before bicuculline 0.8 mg/kg i.v.; read-out: Median effective dose (ED50) Antagonism of Bicuculline
Description: as §1
The batches were constituted by 10 Charles River CDl mice, weighing between 20 and 22 g. The products were administered by the oral route, 60 minutes before the bicuculline (0.8 mg/kg, i.v.). The appearance of tonic convulsions was noted during the 60 minutes following the injection of the bicuculline.

[6] = tested on: spontaneous motility of female Charles River CDl mice; experiment: Effect of the products on the spontaneous motility (actimeter test); assay type: in vivo; conditions: Mus musculus, po, 0.75 h, 45 min after administration, recorded 10 min, vs controls, read-out: Locomotor activity Score (p.cent/controls)

SMILES | mortality at 72 h ([1]; 250 mg/kg p.o.) [%] | mortality at 72 h ([1]; 500 mg/kg p.o.) [%] | mortality at 72 h ([1]; 1000 mg/kg p.o.) [%] | change in vivo at 250 mg/kg [2] [%] | ED50 [3] [mg/kg] | change in vivo at 100 mg/kg [2] [%] | ED50 [4] [mg/kg] | ED50 [5] [mg/kg] | change in vivo at 150 mg/kg ([6]; 150 mg/kg p.o., ** p 0,01 (Student test)) [%] | change in vivo at 10 mg/kg ([6]; 10 mg/kg p.o., * p 0,05 (Student test)) [%] | LD50 at 72 h ([1]; oral, calculated, read-out: LD50 (DL50)) [mg/kg]
OC1CCN(c2ncc(Cl)c(-c3ccc(Cl)cc3)n2)CC1 [SR 41556] | 0 | 0 | 0 | -29 |  |  |  |  |  |  | 
OCCN(CCO)c1nccc(-c2ccccc2Cl)n1 [SR 41591] | 0 | 0 | 0 |  |  |  |  |  |  |  | 
OC1CCN(c2ccc(-c3ccc(F)cc3)nn2)CC1 [SR 41184] | 0 | 60 | 100 |  | 48 | -91 |  |  |  |  | 
COc1ccc(-c2ccc(N3CCC(O)CC3)nn2)cc1 [SR 41185] | 0 | 0 | 0 | -78 |  |  |  |  |  |  | 
O=C(OC1CCN(c2ccc(-c3ccccc3Cl)nn2)CC1)C1CC1 [SR 41174] |  |  |  |  | 92 | -15 |  |  |  |  | 
OC1CCN(c2nccc(-c3ccc(Cl)cc3)n2)CC1 [SR 41554] | 0 | 0 | 0 | -26 | 145 |  | 66 | 147 |  |  | 
OC1CCN(c2ccc(-c3cc(Cl)ccc3Cl)nn2)CC1 [SR 41932] | 0 | 0 | 100 |  | 30 |  |  | 131 | -59 |  | 
OCCN(CCO)c1nccc(-c2ccc(Cl)cc2)n1 [SR 41590] | 0 | 0 | 40 |  |  |  |  |  |  |  | 
OC1CCN(c2ccc(-c3ccc(Cl)c(Cl)c3)nn2)CC1 [SR 41155] | 0 | 100 | 100 |  |  | -82 | 20 |  |  |  | 
CN(C)C(=O)OC1CCN(c2ccc(-c3ccccc3Cl)nn2)CC1 [SR 42095] |  |  |  |  | 2 |  | 7.4 | 1.6 |  | -28 | 
OC1CCN(c2ncc(Cl)c(-c3ccccc3Cl)n2)CC1 [CM 40858, Hydrobromide of 5-chloro-6-(2-chlorophenyl)-2-(4-hydroxy-piperidino)pyrimidine] | 0 | 0 | 0 | -20 | 49 |  |  |  |  |  | 
CNC(=O)OC1CCN(c2ccc(-c3ccccc3Cl)nn2)CC1 [SR 41820, 3-(4-methylcarbamoyloxy-piperidino)-6-(2-chloro-phenyl)pyridazine] |  |  |  |  | 10 |  |  | 13 |  |  | 
OC1CCN(c2ccc(-c3ccccc3Cl)nn2)CC1 [CM 40907, 3-(4-hydroxy-piperidino)-6-(2-chlorophenyl)pyridazine] |  |  |  |  | 16 | -66 | 96 | 38 |  |  | 807
OC1CCN(c2ccc(-c3ccccc3)nn2)CC1 [SR 41171] | 0 | 0 | 100 |  | 86 | -34 |  | 83 |  |  | 
